Assay results published in patent US9238571B2, “Formulations for c-Met kinase inhibitors” (Merck Sharp & Dohme Limited, priority 2009, dated 2016).

Key:
[1] = Solubility measurements of Compound A HCl salt in 250 mL SGF with citric acid pre-dissolved; format: physicochemical
Experimental: FIG. 2 describes the solubility measurements for Compound A HCl salt in 250 mL of SGF with various amounts of citric acid anhydrous pre-dissolved.
Within this formulation the amount of citric acid anhydrous available is 160.44 mg (Target fill weight for the capsule is 382.0 mg)

[2] = Clinical studies with Compound A (exposure among patients); format: in vivo
From the text: The formulations of the instant invention have advantages over other formulations of c-Met kinase inhibitors. […] Based upon the sharp dependence of solubility on pH, it can be postulated that the performance of these formulations can vary based on variability in gastric pH. […] Exposure can vary due to many factors, including whether the inhibitor is taken with or without food. The formulations of the instant invention give in vivo exposures to the drug that are less sensitive to changes in gastric pH than other formulations.

maximum solubility ([1]; 300 mg of citric acid fully dissolved in 250 mL of SGF pH 3.0, Compound A HCl salt (FIG. 2)): approximately 15 mg | % dissolved equated from maximum solubility ([1]; for a 110 mg potency capsule, 300 mg citric acid pre-dissolved in 250 mL SGF pH 3.0): 14% | variability in Compound A exposure among patients [2]: high variability | exposure in patients concomitantly taking antacids ([2]; some patients with high gastric pH (antacids)): lower exposures
Structure (SMILES): Cn1cc(-c2cnc3ccc4ccc(CS(=O)(=O)NCc5ccccn5)cc4c(=O)c3c2)cn1 [Compound A, 1-[3-(1-Methyl-1H-pyrazol-4-yl)-5-oxo-5H-benzo[4,5]cyclohepta[1,2-b]pyridin-7-yl]-N-(pyridin-2-ylmethyl)methanesulfonamide]
